Results on 92 molecules are retold here after PubChem BioAssay AID732 (Emory University Molecular Libraries Screening Center, 2007).

Activity calls are given as the source filed them. How the calls were made is not given here.

The test has as its system in vivo angiogenesis, blood vessel count. Briefly: angiogenesis inhibition in living animals, in vivo study, HTS (AID 732).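 Further: zebrafish embryos dosed at one day post fertilization; 0% = reference inhibitor and 100% = plate mean.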 Particulars: hits give low values;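 tested at 30 µM in the well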.
On to `O=C(O)/C=C/c1ccc(O)c(O)c1`, for which the vessel count % control is 108% (inactive). For `CN(C(=O)Cc1ccc(Cl)c(Cl)c1)C(CN1CCCC1)c1cccc(OCC(=O)O)c1` (configuration not stated), the vessel count % control was 124% (inactive).

Consider `NC(N)=[N+]1CCc2ccccc2C1`, for which the vessel count % control was 113% (inactive).

Consider `CN1C(C(=O)Nc2ccccn2)=C(O)c2ccccc2S1(=O)=O`, for which the vessel count % control was 110% (inactive). To `OC[C@H]1O[C@@H](n2cnc3cncnc32)[C@H](O)[C@@H]1O` belongs 82.1% (inactive); to `CC(C)(C)c1cc(/C=C(\C#N)C(N)=S)cc(C(C)(C)C)c1O`, 0% (inactive); to `C=CCN1CCC2(C)c3cc(O)ccc3CC1[C@@H]2C` (some centres not stated), 89.5% (inactive). Take `CC(C)[N+](C)(CCOC(=O)C1c2ccccc2Oc2ccccc21)C(C)C`: the vessel count % control is 134% (inactive). For `Oc1ccc(Cn2cc[nH]c2=S)cc1`, the vessel count % control was 92.9% (inactive). As to `O=C(O)c1cc(=O)c2c(Cl)cc(Cl)cc2[nH]1`, the vessel count % control is 113% (inactive).

For the molecule `CC1=C(C)C(=O)C(CCCCC#CCCCC#CCO)=C(C)C1=O`, the vessel count % control is 88.8% (inactive). In the case of `Cc1cccc(C)c1NC(=O)C[N+](C)(C)C`, the vessel count % control was 87.6% (inactive). Turning to `CN1CCc2cc(O)cc3c2[C@H]1Cc1ccc(O)c(O)c1-3`, the vessel count % control was 96.7% (inactive).

For the molecule `NCCS(=O)O`, the vessel count % control is 107% (inactive). With `CC(=O)OCC1=C(C(=O)O)N2C(=O)[C@@H](NC(=O)Cc3cccs3)[C@H]2SC1`, the vessel count % control is 132% (inactive). Take `C[C@](N)(Cc1ccc(O)cc1)C(=O)O`: the vessel count % control was 116% (inactive). With `CCNC(=O)[C@H]1O[C@@H](n2cnc3c(N)nc(NCCc4ccc(CCC(=O)O)cc4)nc32)C(O)[C@H]1O` (some centres not stated), the vessel count % control is 93.7% (inactive). In the case of `Cc1c2ccncc2c(C)c2c1[nH]c1ccccc12`, the vessel count % control was 110% (inactive). Consider `C[n+]1cc2c3c(ccc2c2ccc4cc5c(cc4c21)OCO5)OCO3`, for which the vessel count % control was 0% (inactive). For the molecule `CN(C)CCCO[C@@H]1[C@H]2OC(C)(C)O[C@H]2O[C@@H]1C(O)CO` (some centres not stated), the vessel count % control was 88% (inactive). As to `NCCC(=O)NCCc1cnc[nH]1`, the vessel count % control is 84.2% (inactive). As for `Nc1c2c(nc3ccccc13)CCCC2`, the vessel count % control is 91.9% (inactive). For `Cc1nccc2c1[nH]c1ccccc12`, the vessel count % control is 86.1% (inactive). Turning to `Clc1cc(I)cc(Cl)c1NC1=NCCN1`, the vessel count % control was 80.6% (inactive).

As to `CC1(C)C(=O)N(CCN2CCC(C(=O)c3ccc(F)cc3)CC2)c2ccccc21`, the vessel count % control is 118% (inactive). With `Brc1c(NC2=NCCN2)ccc2nccnc12`, the vessel count % control was 104% (inactive).

Regarding `N=C(N)SCCc1cnc[nH]1`, the vessel count % control is 150% (inactive).

On to `O=c1[nH]c2cc(Cl)ccc2c(O)c1-c1ccc(Oc2ccccc2)cc1`, for which the vessel count % control was 66.8% (inactive). To `NC(N)=NC(N)=Nc1ccccc1` belongs 72.6% (inactive). To `COC1=C(OC)C(=O)c2ccccc2C1=O` belongs 115% (inactive).

Turning to `OC(CN1CCC(Cc2ccc(F)cc2)CC1)c1ccc(Cl)cc1` (configuration not stated), the vessel count % control was 61.6% (inactive). With `COc1cc(=O)n(C)c2c(OCC(O)C(C)(C)O)cccc12` (configuration not stated), the vessel count % control was 75.4% (inactive). Consider `NCCCCN=C(N)N`, for which the vessel count % control is 106% (inactive). The same measure for `CC(C)C1C2CCC(C2)C1N` (configuration not stated): 95.1% (inactive). As for `O=C1O/C(=C/Br)CCC1c1cccc2ccccc12` (configuration not stated), the vessel count % control is 87.4% (inactive).

Take `O=C1NC(=O)C(c2ccccc2)(c2ccccc2)N1`: the vessel count % control is 92.7% (inactive). Regarding `CN1C2CCC1CC(NC(=O)c1nn(C)c3ccccc13)C2` (configuration not stated), the vessel count % control was 104% (inactive).

`N.N.O=C(O)C1(C(=O)O)CCC1.[Pt+2]`: the vessel count % control is 105% (inactive). Consider `CC(N)(Cc1ccc(O)c(O)c1)C(=O)O` (configuration not stated), for which the vessel count % control is 108% (inactive).

With `CNCCCN1c2ccccc2CCc2ccccc21`, the vessel count % control is 82.9% (inactive). Regarding `NC(N)=NCCSSCCN=C(N)N`, the vessel count % control was 93.7% (inactive). As to `O=C(c1ccccc1)c1ccc2n1CCC2C(=O)O` (configuration not stated), the vessel count % control is 79.7% (inactive). As for `CCCCCCCCC(=O)NCc1ccc(O)c(OC)c1`, the vessel count % control was 98.1% (inactive).

In the case of `C[N+]1(C)C2CCC1CC(OC(=O)c1c[nH]c3ccccc13)C2` (configuration not stated), the vessel count % control is 99.8% (inactive). Take `O=Nc1c(-c2c(O)[nH]c3ccc(S(=O)(=O)O)cc23)[nH]c2ccccc12`: the vessel count % control is 92.9% (inactive). In the case of `COC(=O)N1CCN(C(=O)Cc2ccc(Cl)c(Cl)c2)C(CN2CCCC2)C1` (configuration not stated), the vessel count % control was 116% (inactive). As for `CN1CCN(CCCN2c3ccccc3Sc3ccc(Cl)cc32)CC1`, the vessel count % control is 68.9% (inactive).

Turning to `NC(=O)C(=O)O`, the vessel count % control was 125% (inactive). To `C=CCn1c(=O)c2c(nc(-c3ccc(S(=O)(=O)O)cc3)n2C)n(C)c1=O` belongs 92% (inactive); to `COc1ccc2[nH]cc(CCN(C)C)c2c1`, 83.1% (inactive). `CCCN1C[C@H](CSC)C[C@@H]2c3cccc4[nH]cc(c34)C[C@H]21`: the vessel count % control was 96.8% (inactive). Consider `O=C(O)c1cc[c]([Hg][Cl])cc1`, for which the vessel count % control was 105% (inactive). On to `CC1=C(/C=C/C(C)=C/C=C/C(C)=C/C(=O)Nc2ccc(O)cc2)C(C)(C)CCC1`, for which the vessel count % control is 96.8% (inactive). As to `CN[C@H]1CC[C@@H](c2ccc(Cl)c(Cl)c2)c2ccccc21`, the vessel count % control is 98% (inactive).

`Cc1ccc(S(=O)(=O)N[C@@H](Cc2ccccc2)C(=O)CCl)cc1`: the vessel count % control was 97.1% (inactive).

As for `COc1ccc(OC)c(C(O)C(C)N)c1` (configuration not stated), the vessel count % control is 94.8% (inactive).

As to `COC(=O)[C@@H](N)CCCN=C(N)N[N+](=O)[O-]`, the vessel count % control was 95% (inactive). With `CN[C@H](CC(=O)O)C(=O)O`, the vessel count % control is 86.7% (inactive). For `CN1CCc2cc(NC(=O)Nc3cccnc3)ccc21`, the vessel count % control is 86.6% (inactive).

On to `O=c1[nH]c(=O)c2nc3ccccc3nc2[nH]1`, for which the vessel count % control was 129% (inactive). Regarding `N[C@@H](Cc1c[nH]c2ccccc12)C(=O)O`, the vessel count % control was 88.5% (inactive). To `Oc1[nH]c2c(Cl)cc(Cl)cc2c1C1=Nc2ccc(Br)cc2/C1=N\OCCN1CCCC1` belongs 93.4% (inactive). `CCN(CC)C(=O)N[C@@H]1C=C2c3cccc4[nH]cc(c34)C[C@H]2N(C)C1`: the vessel count % control was 75.3% (inactive). `Cc1cc2c(cc1Cl)N(C(=O)Nc1ccnc3ccccc13)CC2`: the vessel count % control was 108% (inactive). To `NC(=O)CN1CC(O)CC1=O` (configuration not stated) belongs 90.1% (inactive). In the case of `C#CC(N)CCC(=O)O` (configuration not stated), the vessel count % control was 80% (inactive).

With `CN(C)CC[C@@H](c1ccc(Cl)cc1)c1ccccn1`, the vessel count % control is 107% (inactive). For `NC(CO)C(=O)NNCc1ccc(O)c(O)c1O` (configuration not stated), the vessel count % control is 120% (inactive). As for `CC(C)(C)c1ccc(C(O)CCCN2CCC(C(O)(c3ccccc3)c3ccccc3)CC2)cc1` (configuration not stated), the vessel count % control was 99.8% (inactive).

`NC(=NCc1ccccc1)NC(=O)c1nc(Cl)c(N)nc1N`: the vessel count % control is 107% (inactive).

As to `CC(C)C(=O)Nc1ccc([N+](=O)[O-])c(C(F)(F)F)c1`, the vessel count % control was 113% (inactive). For `CC(=O)NCCc1ccc(O)c(O)c1`, the vessel count % control is 105% (inactive).

Turning to `CCCCCCCC/C=C\CCCCCCCC(=O)NCCc1ccc(O)c(O)c1`, the vessel count % control was 115% (inactive).

Take `O=C(Nc1ccc([N+](=O)[O-])cc1Cl)c1cc(Cl)ccc1O`: the vessel count % control is 0% (inactive). Consider `C[C@]12CC[C@@H](O)CC1CC[C@@H]1[C@@H]2CC[C@]2(C)C(=O)CC[C@@H]12` (some centres not stated), for which the vessel count % control is 104% (inactive). For the molecule `Cc1ccc([N+](=O)[O-])cc1S(=O)(=O)N(C)C`, the vessel count % control was 108% (inactive). Consider `CCCn1c(=O)c2[nH]c(C3CCCC3)nc2n(CCCOC(=O)c2ccc(S(=O)(=O)F)cc2)c1=O`, for which the vessel count % control is 117% (inactive).

On to `CC(N)Cc1c[nH]c2ccc(O)cc12` (configuration not stated), for which the vessel count % control is 99.1% (inactive). The same measure for `CC(C)(C)NCC(O)COc1nsnc1N1CCOCC1` (configuration not stated): 101% (inactive); for `COc1ccc2c(c1)C13CCCCC1C(C2)N(C)CC3` (configuration not stated): 108% (inactive). In the case of `CCCCC/C=C\CC(O)/C=C/c1cccc(CC(O)CCCCO)n1` (configuration not stated), the vessel count % control was 100% (inactive). Regarding `COc1cc(C=C(C#N)C#N)cc(O)c1O`, the vessel count % control was 114% (inactive). With `CN1CCC(=C2c3ccccc3C=Cc3ccccc32)CC1`, the vessel count % control is 0% (inactive). `CC(C)[C@@]1(NC(=O)[C@@H]2C=C3c4cccc5[nH]cc(c45)C[C@H]3N(C)C2)O[C@@]2(O)[C@@H]3CCCN3C(=O)[C@H](Cc3ccccc3)N2C1=O`: the vessel count % control is 94% (inactive). Turning to `COC(=O)C(C)(N)Cc1ccc(O)cc1` (configuration not stated), the vessel count % control was 123% (inactive).

With `COc1ccc(CCN(C)CCc2ccc(OC)c(OC)c2)cc1OC`, the vessel count % control is 101% (inactive).

On to `CC(C)COCC(CN(Cc1ccccc1)c1ccccc1)N1CCCC1` (configuration not stated), for which the vessel count % control is 104% (inactive). With `C[N+](C)(C)CCC(=O)c1cccc2ccccc12`, the vessel count % control was 0% (inactive). With `NCCCS(=O)(=O)O`, the vessel count % control was 144% (inactive). On to `Nc1ncnc2c1ncn2C1CCCO1` (configuration not stated), for which the vessel count % control was 101% (inactive). Take `OC1CCCCC1N1CCC(c2ccccc2)CC1` (configuration not stated): the vessel count % control is 99% (inactive).

Regarding `Oc1cc2c(cc1O)[C@H]1c3ccccc3CN[C@@H]1CC2`, the vessel count % control was 83.3% (inactive).
